Reference: patent US20260001888A1, “PYRAZOLOPYRIMIDINE PDE9 INHIBITORS” (Merck Sharp & Dohme LLC, priority 2018, published 2026)

Target: Human PDE9 (PDE9A2) (Homo sapiens (Human), UniProt O76083)
Test: PDE9 IMAP fluorescence polarization (FP) inhibition assay
Type: biochemical
Conditions: apparent inhibition constant; human PDE9A2, FAM-cGMP substrate 50 nM, room temperature
Method in brief: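 N-terminal GST-tagged full-length PDE9A2 membrane prep (0.5 ng/ml final) preincubated 30 min with compound at room temperature, then 50 nM FAM-cGMP added for 60 min; IMAP binding reagent stops reaction, FP read after 1 h. Controls: known PDE9 inhibitor (100%), 1% DMSO (0%). KI from four-parameter fit.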

Sequence of Human PDE9 (PDE9A2) (O76083 other isoform, or with tags, fused parts or gaps): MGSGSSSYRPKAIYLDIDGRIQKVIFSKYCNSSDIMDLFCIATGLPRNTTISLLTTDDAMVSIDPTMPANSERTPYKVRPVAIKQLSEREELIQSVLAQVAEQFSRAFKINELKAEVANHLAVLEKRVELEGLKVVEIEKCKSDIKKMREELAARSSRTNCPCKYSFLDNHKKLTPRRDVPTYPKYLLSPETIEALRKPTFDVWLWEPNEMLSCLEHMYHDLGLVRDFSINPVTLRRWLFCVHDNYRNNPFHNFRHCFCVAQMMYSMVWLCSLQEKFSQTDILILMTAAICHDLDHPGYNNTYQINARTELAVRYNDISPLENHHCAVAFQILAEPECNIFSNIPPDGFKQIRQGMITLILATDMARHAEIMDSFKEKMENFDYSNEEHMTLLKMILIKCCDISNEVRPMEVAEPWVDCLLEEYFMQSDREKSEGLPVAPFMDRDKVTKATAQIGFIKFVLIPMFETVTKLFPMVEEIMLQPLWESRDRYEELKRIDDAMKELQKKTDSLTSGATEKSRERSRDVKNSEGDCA

Ki	SMILES
108 nM	CCC(Cc1nc2c(c(C#N)nn2C(C)c2ccc(C(F)(F)F)nc2)c(=O)[nH]1)c1ncccn1 (single isomer, unassigned) [Example 88, 4-oxo-6-(2-(pyrimidin-2-yl)butyl)-1-(1-(6-(trifluoromethyl)pyridin-3-yl)ethyl)-4,5-dihydro-1H-pyrazolo[3,4-d]pyrimidine-3-carbonitrile]
0.24 nM	CCC(Cc1nc2c(c(C#N)nn2C(C)c2ccc(C(F)(F)F)nc2)c(=O)[nH]1)c1ncccn1 (single isomer, unassigned) [Example 89, 4-oxo-6-(2-(pyrimidin-2-yl)butyl)-1-(1-(6-(trifluoromethyl)pyridin-3-yl)ethyl)-4,5-dihydro-1H-pyrazolo[3,4-d]pyrimidine-3-carbonitrile]
28 nM	CCC(Cc1nc2c(c(C#N)nn2C(C)c2ccc(C(F)(F)F)nc2)c(=O)[nH]1)c1ncccn1 (single isomer, unassigned) [Example 90, 4-oxo-6-(2-(pyrimidin-2-yl)butyl)-1-(1-(6-(trifluoromethyl)pyridin-3-yl)ethyl)-4,5-dihydro-1H-pyrazolo[3,4-d]pyrimidine-3-carbonitrile]
